Data reported in PubChem BioAssay (NCI).
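A five-concentration, 48-hour dose response in 96-well plates underlies each endpoint, interpolated linearly between surrounding concentrations. TGI is the concentration that stops growth completely.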

Tests used:
Assay in all cases: growth of human tumour cells (NCI), 48 h
786-0 renal = test system: 786-0 renal
A498 renal = test system: A498 renal
A549 NSCLC = test system: A549 NSCLC
ACHN renal = test system: ACHN renal
BT-549 breast = test system: BT-549 breast
CAKI-1 renal = test system: CAKI-1 renal
CCRF-CEM leukemia = test system: CCRF-CEM leukemia
COLO 205 colon = test system: COLO 205 colon
DU-145 prostate = test system: DU-145 prostate
EKVX NSCLC = test system: EKVX NSCLC
HCC-2998 colon = test system: HCC-2998 colon
HCT-116 colon = test system: HCT-116 colon
HCT-15 colon = test system: HCT-15 colon
HL-60(TB) leukemia = test system: HL-60(TB) leukemia
HOP-62 NSCLC = test system: HOP-62 NSCLC
HOP-92 NSCLC = test system: HOP-92 NSCLC
HS 578T breast = test system: HS 578T breast
HT29 colon = test system: HT29 colon
IGROV1 ovarian = test system: IGROV1 ovarian
K-562 leukemia = test system: K-562 leukemia
KM12 colon = test system: KM12 colon
LOX IMVI melanoma = test system: LOX IMVI melanoma
M14 melanoma = test system: M14 melanoma
MALME-3M melanoma = test system: MALME-3M melanoma
MDA-MB-231 breast = test system: MDA-MB-231 breast
MDA-MB-435 = test system: MDA-MB-435
MDA-N = test system: MDA-N
MOLT-4 leukemia = test system: MOLT-4 leukemia
NCI-H226 lung = test system: NCI-H226 lung
NCI-H23 lung = test system: NCI-H23 lung
NCI-H460 lung = test system: NCI-H460 lung
NCI/ADR-RES ovarian = test system: NCI/ADR-RES ovarian
OVCAR-3 ovarian = test system: OVCAR-3 ovarian
OVCAR-4 ovarian = test system: OVCAR-4 ovarian
OVCAR-5 ovarian = test system: OVCAR-5 ovarian
OVCAR-8 ovarian = test system: OVCAR-8 ovarian
PC-3 prostate = test system: PC-3 prostate
RPMI-8226 leukemia = test system: RPMI-8226 leukemia
RXF 393 renal = test system: RXF 393 renal
SF-268 CNS = test system: SF-268 CNS
SF-295 CNS = test system: SF-295 CNS
SF-539 CNS = test system: SF-539 CNS
SK-MEL-2 melanoma = test system: SK-MEL-2 melanoma
SK-MEL-28 melanoma = test system: SK-MEL-28 melanoma
SK-MEL-5 melanoma = test system: SK-MEL-5 melanoma
SK-OV-3 ovarian = test system: SK-OV-3 ovarian
SN12C renal = test system: SN12C renal
SNB-19 CNS = test system: SNB-19 CNS
SNB-75 CNS = test system: SNB-75 CNS
SR leukemia = test system: SR leukemia
SW-620 colon = test system: SW-620 colon
T-47D breast = test system: T-47D breast
TK-10 renal = test system: TK-10 renal
U251 CNS = test system: U251 CNS
UACC-257 melanoma = test system: UACC-257 melanoma
UACC-62 melanoma = test system: UACC-62 melanoma
MCF7 breast = test system: MCF7 breast
NCI-H522 lung = test system: NCI-H522 lung
UO-31 renal = test system: UO-31 renal

CCN(CC)CCSc1nc2c(c(=N)n1-c1ccccc1)c(=S)n(-c1ccccc1)c(=S)n2-c1ccccc1
TGI (786-0 renal): 1550 nM
TGI (A498 renal): 22.2 µM
TGI (A549 NSCLC): 4.77 µM
TGI (ACHN renal): 3.16 µM
TGI (BT-549 breast): 5.98 µM
TGI (CAKI-1 renal): 2940 nM
TGI (CCRF-CEM leukemia): 446 nM
TGI (COLO 205 colon): 3.51 µM
TGI (DU-145 prostate): 3.05 µM
TGI (EKVX NSCLC): 7.31 µM
TGI (HCC-2998 colon): 3.15 µM
TGI (HCT-116 colon): 4.69 µM
TGI (HCT-15 colon): 4.35 µM
TGI (HL-60(TB) leukemia): 1290 nM
TGI (HOP-62 NSCLC): 8.32 µM
TGI (HOP-92 NSCLC): 2880 nM
TGI (HS 578T breast): > 90.9 µM
TGI (HT29 colon): 3.37 µM
TGI (IGROV1 ovarian): 3.24 µM
TGI (K-562 leukemia): 2500 nM
TGI (KM12 colon): 12.8 µM
TGI (LOX IMVI melanoma): 3.34 µM
TGI (M14 melanoma): 5 µM
TGI (MALME-3M melanoma): 3.18 µM
TGI (MDA-MB-231 breast): 3.73 µM
TGI (MDA-MB-435): 3.77 µM
TGI (MDA-N): 6.55 µM
TGI (MOLT-4 leukemia): 2330 nM
TGI (NCI-H226 lung): 50.4 µM
TGI (NCI-H23 lung): 10.8 µM
TGI (NCI-H460 lung): 3.86 µM
TGI (NCI/ADR-RES ovarian): 52.5 µM
TGI (OVCAR-3 ovarian): 3.07 µM
TGI (OVCAR-4 ovarian): 7.87 µM
TGI (OVCAR-5 ovarian): 29 µM
TGI (OVCAR-8 ovarian): 3.54 µM
TGI (PC-3 prostate): 3.32 µM
TGI (RPMI-8226 leukemia): 1020 nM
TGI (RXF 393 renal): 2780 nM
TGI (SF-268 CNS): 3.9 µM
TGI (SF-295 CNS): 30.1 µM
TGI (SF-539 CNS): 9.57 µM
TGI (SK-MEL-2 melanoma): 20.4 µM
TGI (SK-MEL-28 melanoma): 16.5 µM
TGI (SK-MEL-5 melanoma): 11.4 µM
TGI (SK-OV-3 ovarian): 15.5 µM
TGI (SN12C renal): 3.29 µM
TGI (SNB-19 CNS): 40.6 µM
TGI (SNB-75 CNS): 5.52 µM
TGI (SR leukemia): 936 nM
TGI (SW-620 colon): > 21.4 µM
TGI (T-47D breast): 9.03 µM
TGI (TK-10 renal): 3.17 µM
TGI (U251 CNS): 6.4 µM
TGI (UACC-257 melanoma): 3.15 µM
TGI (UACC-62 melanoma): 3.16 µM

CC(NC(=O)C(N)CC(=O)O)NC(=O)N1CCOCC1 (stereo not given)
TGI (786-0 renal): > 100000 nM
TGI (A498 renal): > 100 µM
TGI (A549 NSCLC): > 100 µM
TGI (ACHN renal): > 100 µM
TGI (BT-549 breast): > 100 µM
TGI (CAKI-1 renal): > 100000 nM
TGI (CCRF-CEM leukemia): > 100000 nM
TGI (COLO 205 colon): > 100 µM
TGI (DU-145 prostate): > 100 µM
TGI (EKVX NSCLC): > 100 µM
TGI (HCT-116 colon): > 100 µM
TGI (HCT-15 colon): > 100 µM
TGI (HOP-62 NSCLC): > 100 µM
TGI (HS 578T breast): > 100 µM
TGI (HT29 colon): > 100 µM
TGI (IGROV1 ovarian): > 100 µM
TGI (K-562 leukemia): > 100000 nM
TGI (KM12 colon): > 100 µM
TGI (LOX IMVI melanoma): > 100 µM
TGI (M14 melanoma): > 100 µM
TGI (MALME-3M melanoma): > 100 µM
TGI (MCF7 breast): > 100 µM
TGI (MDA-MB-231 breast): > 100 µM
TGI (MDA-MB-435): > 100 µM
TGI (MDA-N): > 100 µM
TGI (MOLT-4 leukemia): > 100000 nM
TGI (NCI-H226 lung): > 100 µM
TGI (NCI-H23 lung): > 100 µM
TGI (NCI-H460 lung): > 100 µM
TGI (NCI-H522 lung): > 100 µM
TGI (NCI/ADR-RES ovarian): > 100 µM
TGI (OVCAR-3 ovarian): > 100 µM
TGI (OVCAR-4 ovarian): > 100 µM
TGI (OVCAR-5 ovarian): > 100 µM
TGI (OVCAR-8 ovarian): > 100 µM
TGI (PC-3 prostate): > 100 µM
TGI (RPMI-8226 leukemia): > 100000 nM
TGI (RXF 393 renal): > 100000 nM
TGI (SF-268 CNS): > 100 µM
TGI (SF-295 CNS): > 100 µM
TGI (SF-539 CNS): > 100 µM
TGI (SK-MEL-2 melanoma): > 100 µM
TGI (SK-MEL-28 melanoma): > 100 µM
TGI (SK-MEL-5 melanoma): > 100 µM
TGI (SK-OV-3 ovarian): > 100 µM
TGI (SN12C renal): > 100 µM
TGI (SNB-19 CNS): > 100 µM
TGI (SNB-75 CNS): > 100 µM
TGI (SW-620 colon): > 100 µM
TGI (TK-10 renal): > 100 µM
TGI (U251 CNS): > 100 µM
TGI (UACC-257 melanoma): > 100 µM
TGI (UACC-62 melanoma): > 100 µM
TGI (UO-31 renal): > 100 µM
